How the values were obtained:
PD-1/PD-L1 = PD-1/PD-L1 (Homo sapiens, UniProt Q9NZQ7); assay: PD-1/PD-L1 biochemical protein-protein interaction assay (ALPHA); assay type: binding; conditions: 0.3 nM His tagged PD-L1, 2.5 nM biotinylated Fc-PD-1, 60 minutes at 25° C., read-out: IC50 PD-L1-PD-1 Alpha IC50-mono PD-L1-fcP-D1
In short: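 Final concentrations 0.3 nM His-tagged PD-L1 and 2.5 nM biotinylated Fc-PD-1 (extracellular domains) were reacted with compound for 60 min at 25° C in pH 7.4 Hepes/NaCl/EDTA/Tween/BSA buffer. Binding was then detected by ALPHA beads, and IC50 values were taken from four-parameter curve fitting.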

PD-1/PD-L1 interaction = molecular target: T1, PD-1/PD-L1 interaction (Homo sapiens, UniProt Q9NZQ7); assay: PD-1/PD-L1 NFAT reporter co-culture assay; assay type: cell-based; conditions: Jurkat PD-1 NFAT-luciferase cells co-cultured with aAPC-PD-L1 CHO cells, 6 hrs at 37° C.; read-out: EC50 NFAT Luciferase
T1 construct: expressed in transfected cells; host or cells: CHO cells (aAPC-PD-L1) co-cultured with Jurkat cells overexpressing PD-1 and an NFAT-luciferase reporter
T1 sequence (Q9NZQ7 19-290): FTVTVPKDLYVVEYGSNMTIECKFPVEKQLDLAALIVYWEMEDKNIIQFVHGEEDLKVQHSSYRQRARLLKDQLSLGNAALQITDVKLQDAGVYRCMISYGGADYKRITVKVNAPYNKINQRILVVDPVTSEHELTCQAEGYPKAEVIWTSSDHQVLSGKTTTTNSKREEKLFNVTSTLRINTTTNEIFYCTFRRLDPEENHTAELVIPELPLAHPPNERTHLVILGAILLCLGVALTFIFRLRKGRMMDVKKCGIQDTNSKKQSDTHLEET
In short: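 CHO aAPC-PD-L1 seeded overnight; PD-1/NFAT-luc Jurkat + cpd in RPMI 1640, 2% FBS added at once; 6 h, 37 °C; ONE-Glo luminescence; EC50, 4-parameter fit.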

PD-L1 = molecular target: T2, PD-L1 (Homo sapiens, UniProt Q9NZQ7); assay: PD-L1/PD-L1 dimerization biochemical protein-protein interaction assay (ALPHA); assay type: binding; conditions: compound-induced PD-L1 dimerization, head prints '1 nM' (0.5 nM His-tagged PD-L1 and 0.5 nM FLAG-tagged PD-L1), read-out: AC50 PDL1 Dimer Alpha 1 nM
T2 construct: determine if they can specifically dimerize the extracellular domains of PD-L1
T2 sequence (Q9NZQ7 19-238 limits assumed): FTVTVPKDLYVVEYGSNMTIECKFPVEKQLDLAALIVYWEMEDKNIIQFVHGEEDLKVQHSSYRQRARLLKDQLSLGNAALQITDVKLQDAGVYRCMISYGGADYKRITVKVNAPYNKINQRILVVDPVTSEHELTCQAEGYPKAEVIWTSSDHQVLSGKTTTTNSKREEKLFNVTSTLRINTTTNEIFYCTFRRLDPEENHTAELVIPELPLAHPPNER
T2 sequence (Q9NZQ7 19-238 limits assumed): as above
In short: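 ALPHA proximity assay of compound-induced dimerization of 0.5 nM His-tagged and 0.5 nM FLAG-tagged PD-L1 extracellular domains in Hepes pH 7.4 buffer, 2 h at 25 °C. Anti-His acceptor then anti-FLAG donor beads, 60 min each; AC50 from four-parameter fit.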

Sequence of PD-1/PD-L1 (Q9NZQ7 19-238 limits assumed): as above

SMILES	IC50 (PD-1/PD-L1)	EC50 (PD-1/PD-L1 interaction)	AC50 (PD-L1)
Cc1c(COc2cc(OCc3cncc(C#N)c3)c(CNC[C@@H](O)CC(=O)O)cc2Cl)cccc1-c1cccc(-c2ccc(OCCNC[C@@H](O)CC(=O)O)cc2)c1Cl [Example 341, (S)-4-((4-((4″-(2-(((S)-3-carboxy-2-hydroxypropyl)amino)ethoxy)-2′-chloro-2-methyl-[1,1′:3′,1″-terphenyl]-3-yl)methoxy)-5-chloro-2-((5-cyanopyridin-3-yl)methoxy)benzyl)amino)-3-hydroxybutanoic acid]	0.064 nM	284 nM	38.3 nM
Cc1c(COc2cc(OCc3cncc(C#N)c3)c(CN[C@@](C)(CO)C(=O)O)cc2Cl)cccc1-c1cccc(-c2ccc(C3CCNC3)cc2)c1C (stereo partly drawn) [Example 342, (S)-2-((5-chloro-2-((5-cyanopyridin-3-yl)methoxy)-4-((2,2′-dimethyl-4″-((R)-pyrrolidin-3-yl)-[1,1′:3′,1″-terphenyl]-3-yl)methoxy)benzyl)amino)-3-hydroxy-2-methylpropanoic acid and(S)-2-((5-chloro-2-((5-cyanopyridin-3-yl)methoxy)-4-((2,2′-dimethyl-4″-((S)-pyrrolidin-3-yl)-[1,1′:3′,1″-terphenyl]-3-yl)methoxy)benzyl)amino)-3-hydroxy-2-methylpropanoic]	0.4 nM	447 nM	118 nM
Cc1c(COc2cc(OCc3cncc(C#N)c3)c(CN[C@@](C)(CO)C(=O)O)cc2Cl)cccc1-c1cccc(-c2ccc3c(c2)CC(N)C3)c1C (stereo partly drawn) [Example 343, (S)-2-((4-((3′-((R)-2-amino-2,3-dihydro-1H-inden-5-yl)-2,2′-dimethyl-[1,1′-biphenyl]-3-yl)methoxy)-5-chloro-2-((5-cyanopyridin-3-yl)methoxy)benzyl)amino)-3-hydroxy-2-methylpropanoic acid and(S)-2-((4-((3′-((S)-2-amino-2,3-dihydro-1H-inden-5-yl)-2,2′-dimethyl-[1,1′-biphenyl]-3-yl)methoxy)-5-chloro-2-((5-cyanopyridin-3-yl)methoxy)benzyl)amino)-3-hydroxy-2-methylpropanoic acid]	0.218 nM	158 nM	81.1 nM
Cc1c(COc2cc(OCc3cncc(C#N)c3)c(CN3CCCC[C@H]3C(=O)O)cc2Cl)cccc1-c1cccc(-c2ccc(OCCNCCO)cc2)c1C [Example 344, (S)-1-(5-chloro-2-((5-cyanopyridin-3-yl)methoxy)-4-((4″-(2-((2-hydroxyethyl)amino)ethoxy)-2,2′-dimethyl-[1,1′:3′,1″-terphenyl]-3-yl)methoxy)benzyl)piperidine-2-carboxylic acid]	0.064 nM	475 nM	55 nM
Cc1c(COc2cc(OCc3cncc(C#N)c3)c(CN3CC[C@@H](C(=O)O)C3)cc2Cl)cccc1-c1cccc(-c2ccc(OCCNCCO)cc2)c1C [Example 345, (R)-1-(5-chloro-2-((5-cyanopyridin-3-yl)methoxy)-4-((4″-(2-((2-hydroxyethyl)amino)ethoxy)-2,2′-dimethyl-[1,1′:3′,1″-terphenyl]-3-yl)methoxy)benzyl)pyrrolidine-3-carboxylic acid]	0.09 nM	552 nM	229 nM
Cc1c(COc2cc(OCc3cncc(C#N)c3)c(CNC[C@@H](O)CC(=O)O)cc2Cl)cccc1-c1cccc(NC(=O)c2ccc(CNC[C@@H](O)CC(=O)O)cn2)c1C [Example 346, (S)-4-(((6-((3′-((4-((((S)-3-carboxy-2-hydroxypropyl)amino)methyl)-2-chloro-5-((5-cyanopyridin-3-yl)methoxy)phenoxy)methyl)-2,2′-dimethyl-[1,1′-biphenyl]-3-yl)carbamoyl)pyridin-3-yl)methyl)amino)-3-hydroxybutanoic acid]	0.074 nM	214 nM	181 nM
Cc1c(COc2cc(OCc3cncc(C#N)c3)c(CNC[C@@H](O)CC(=O)O)cc2Cl)cccc1-c1cccc(-c2ccc3c(c2)c(C)nn3CCNC[C@@H](O)CC(=O)O)c1C [Example 347, (S)-4-((4-((3′-(1-(2-(((S)-3-carboxy-2-hydroxypropyl)amino)ethyl)-3-methyl-1H-indazol-5-yl)-2,2′-dimethyl-[1,1′-biphenyl]-3-yl)methoxy)-5-chloro-2-((5-cyanopyridin-3-yl)methoxy)benzyl)amino)-3-hydroxybutanoic acid]	0.211 nM	142 nM	125 nM
Cc1c(COc2cc(OCc3cncc(C#N)c3)c(CNC[C@@H](O)CC(=O)O)cc2Cl)cccc1-c1cccc(-c2ccc3c(CCNC[C@@H](O)CC(=O)O)coc3c2)c1C [Example 348, (S)-4-((4-((3′-(3-(2-(((S)-3-carboxy-2-hydroxypropyl)amino)ethyl)benzofuran-6-yl)-2,2′-dimethyl-[1,1′-biphenyl]-3-yl)methoxy)-5-chloro-2-((5-cyanopyridin-3-yl)methoxy)benzyl)amino)-3-hydroxybutanoic acid]	0.122 nM	381 nM	80.4 nM
Cc1c(COc2cc(OCc3cncc(C#N)c3)c(CNC[C@@H](O)CC(=O)O)cc2Cl)cccc1-c1cccc(-c2ncc(COCCNC[C@@H](O)CC(=O)O)s2)c1C [Example 350, (S)-4-((4-((3′-(5-((2-(((S)-3-carboxy-2-hydroxypropyl)amino)ethoxy)methyl)thiazol-2-yl)-2,2′-dimethyl-[1,1′-biphenyl]-3-yl)methoxy)-5-chloro-2-((5-cyanopyridin-3-yl)methoxy)benzyl)amino)-3-hydroxybutanoic acid]	0.105 nM	527 nM	252 nM
N#Cc1cc(C#N)cc(COc2nc(OCc3cccc(-c4cccc(-c5ccc(OCCNCCO)cc5)c4Cl)c3Cl)c(Cl)cc2CNC[C@@H](O)CC(=O)O)c1 [Example 351, (S)-4-(((5-chloro-6-((2,2′-dichloro-4″-(2-((2-hydroxyethyl)amino)ethoxy)-[1,1′:3′,1″-terphenyl]-3-yl)methoxy)-2-((3,5-dicyanobenzyl)oxy)pyridin-3-yl)methyl)amino)-3-hydroxybutanoic acid]	0.982 nM	235 nM	168 nM
C[C@@](CO)(NCc1cc(Cl)c(OCc2cccc(-c3cccc(-c4ccc(OCCNCCO)cc4)c3Cl)c2Cl)nc1OCc1cc(C#N)cc(C#N)c1)C(=O)O [Example 352, (S)-2-(((5-chloro-6-((2,2′-dichloro-4″-(2-((2-hydroxyethyl)amino)ethoxy)-[1,1′:3′,1″-terphenyl]-3-yl)methoxy)-2-((3,5-dicyanobenzyl)oxy)pyridin-3-yl)methyl)amino)-3-hydroxy-2-methylpropanoic acid]	0.207 nM	105 nM	56.3 nM
Cc1c(COc2cc(OCc3cncc(C#N)c3)c(CNC[C@@H](O)CC(=O)O)cc2Cl)cccc1-c1cccc(-c2ccc(OC[C@@H](N)CO)cc2)c1C [Example 353, (S)-4-((4-((4″-((S)-2-amino-3-hydroxypropoxy)-2,2′-dimethyl-[1,1′:3′,1″-terphenyl]-3-yl)methoxy)-5-chloro-2-((5-cyanopyridin-3-yl)methoxy)benzyl)amino)-3-hydroxybutanoic acid]	0.311 nM	153 nM	215 nM
Cc1c(COc2cc(OCc3cncc(C#N)c3)c(CNC[C@@H](O)CC(=O)O)cc2Cl)cccc1-c1cccc(-c2ccc(O[C@H]3CCCN(CCO)C3)cc2)c1C [Example 354, (S)-4-((5-chloro-2-((5-cyanopyridin-3-yl)methoxy)-4-((4″-(((S)-1-(2-hydroxyethyl)piperidin-3-yl)oxy)-2,2′-dimethyl-[1,1′:3′,1″-terphenyl]-3-yl)methoxy)benzyl)amino)-3-hydroxybutanoic acid]	0.241 nM	1880 nM	342 nM
COc1cc(OCc2cccc(-c3cccc(COc4cc(OC)c(CNC[C@@H](O)CC(=O)O)cc4C(F)(F)F)c3C)c2C)c(Cl)cc1CNC[C@@H](O)CC(=O)O [Example 357, (S)-4-((4-((3′-((4-((((S)-3-carboxy-2-hydroxypropyl)amino)methyl)-2-chloro-5-methoxyphenoxy)methyl)-2,2′-dimethyl-[1,1′-biphenyl]-3-yl)methoxy)-2-methoxy-5-(trifluoromethyl)benzyl)amino)-3-hydroxybutanoic acid]	0.358 nM	202 nM	≥ 10000 nM
CNCc1cccc(-c2cccc(-c3cccc(COc4cc(OCc5cncc(C#N)c5)c(CN[C@@](C)(CO)C(=O)O)cc4Cl)c3C)c2C)c1 [Example 358, (S)-2-((5-chloro-2-((5-cyanopyridin-3-yl)methoxy)-4-((2,2′-dimethyl-3″-((methylamino)methyl)-[1,1′:3′,1″-terphenyl]-3-yl)methoxy)benzyl)amino)-3-hydroxy-2-methylpropanoic acid]	0.137 nM	2090 nM	100 nM
